Like-named read-outs stand apart in the source and are kept apart here.
Experiments:
[1] = tested on: spontaneous gastric acid secretion; assay: Gastric acid secretion-inhibiting effect according to Shay's method; type: in vivo, female OFA rats; settings: for Gastric acid, change / Gastric juice, change: vs control; for Gastric acid, treated: titration with 0.1N NaOH; for ED50: po, gastric acid, Shay rat
Experimental: After being starved for 24 hours, female OFA rats weighing 130 to 160 g were orally treated with the compounds to be tested. (15 animals were used for each dose.) One hour later laparotomy and pylorus ligature were carried out under ether anaesthesia according to Shay [Gastroenterology 5, 43 (1945)]. After 5 hours the animals were killed by an overdose of ether, their stomaches were excised and the volume and acid content of the gastric juice were determined. The acid was measured by titration with 0.1N NaOH, by using Topfer's indicator.

[2] = tested on: histamine-induced gastric acid secretion; assay: Inhibition of the histamine-induced gastric acid secretion in rats; type: in vivo, male OFA rats; settings: for Gastric acid, change / Gastric juice, change: vs control; for Gastric juice, treated: histamine 5 mg/kg/hour; for ED50: Rattus norvegicus, ip, histamine-induced, dose column i.p.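 On Gastric acid, treated: dosed 30 min before a 5 hour experiment.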
Experimental: After being starved for 24 hours, male OFA rats weighing 250 to 320 g were anaestethized by 40% urethane (0.5 ml/100 g), then the trachea and jugular vein were cannulated (10 animals were used for each dose). A glass cannula was inserted to the stomach from the direction of the pylorus. The stomach was washed with lukewarm water and then purified by air blown through. The gastric acid secretion was induced by an infusion of histamine (5 mg/kg/hour), or pentagastrin (0.05 mg/kg/hour) or carbachol (0.01 mg/kg/hour), respectively. […]

[3] = tested on: necrosis induced by ethanol containing hydrochloric acid; assay: Cytoprotective effect (modified Robert's test); type: in vivo; settings: for Bleedings, change: vs control; for ED50: po, cytoprotection
Experimental: The modified Robert's test [Gastroenterology 17, 761 (1979)] was used. The necrotizing agent (100 ml of abs. ethanol containing 2 ml of concentrated hydrochloric acid) was orally administered in a volume of 0.5 ml/100 g by 30 minutes after giving the compound to be tested. (12 animals were used for each dose.) After 1 hour the animals were killed by ether and the bleedings on the glandular part of their stomach were evaluated.

[4] = tested on: gastric ulcer after pylorus ligature; assay: Gastric ulcer-inhibiting effect in rats operated according to Shay's method; type: in vivo, female OFA rats; settings: for ED50: Rattus norvegicus, po, 18 h, p.o.
Experimental: Female OFA rats starved for 24 hours weighing 150 to 160 g were used. (The animals were allowed to drink water ad libitum). The animals were orally treated with the substance to be tested and after 1 hour laparotomy and pylorus ligature according to Shay [Gastroenterology 5, 43 (1945)] were performed under ether anaesthesia. After 18 hours the number and size of ulcers formed on the membranaceous part of the stomach were examined under microscope. The evaluation was made in relation to the control group and the ED50 values were determined. The sizes of the ulcers were expressed as score values from 0.5 to 32.

[5] = tested on: reserpine-induced gastric ulcer; assay: Inhibition of the reserpine-induced gastric ulcer; type: in vivo, female OFA rats; settings: for ED50: Rattus norvegicus, po, 18 h, p.o., reserpine 5 mg/kg s.c.
Experimental: After being starved for 24 hours, female OFA rats were orally treated with the compounds to be tested and then subcutaneously (s.c.) with 5 mg/kg of reserpine after 1 hour. After 18 hours the animals were killed and their stomach were examined under microscope. The evaluation was performed as described under the preceding paragraph 1.

[6] = tested on: indomethacin-induced gastric ulcer; assay: Inhibition of the indomethacin-induced gastric ulcer; type: in vivo, female RG-Wistar rats; settings: for ED50: Rattus norvegicus, po, indomethacin 20 mg/kg orally
Experimental: After being starved for 24 hours, female RG-Wistar rats were orally treated with the compounds to be tested and then orally with 20 mg/kg of indomethacin after 30 minutes. The evaluation was carried out in relation to the control group and the ED50 values were determined.

[7] = tested on: gastric ulcer induced by Aspirin plus stress; assay: Inhibition of the gastric ulcer induced by Aspirin plus stress; type: in vivo, female RG-Wistar rats; settings: for ED50: Rattus norvegicus, po, Aspirin plus stress
Experimental: After being starved for 24 hours, female RG-Wistar rats weighing 120 to 150 g were orally treated with the compound to be tested and then orally with Aspirin. The animals were sensitized by the aspirin pretreatment and a strong ulceration was induced in the glandular part of stomach of the animals by a subsequent stress (fastening, ducking in water of 22° C. temperature). The ulceration was evaluated as score values from 0 to 2.

[8] = tested on: acetic acid-induced chronic ulcer; assay: Recovery-influencing effect on the acetic acid-induced chronic ulcer; type: in vivo, female RG-Wistar rats; settings: for increase in the recovery: 15 mg/kg oral dose, daily twice for 15 days
Experimental: After anaesthesia by ether and laparotomy, 50 μl of 20% acetic acid were injected into the stomach wall of female RG-Wistar rats. After 5 days the animals were orally treated with the compounds to be tested daily twice for 15 days. On the 16th day the animals were killed by ether and the size of the ulcers appearing on the stomach was measured. The grade of recovery was defined in relation to the control group.

Acute toxicity, mouse = settings: in vivo
Experimental: (§1) These investigations were carried out in OFI mice and OFA rats after starving for 24 hours. Ten animals were used for each dose. The number of doses was 3 or 4.

Acute toxicity, rat = settings: in vivo
Experimental: as §1

[9] = read-out: ED50 related to the number of ulcers
[10] = read-out: ED50 related to the occurrance of ulcers
[11] = read-out: ED50 related to the severity of ulcers
[12] = po, female mouse, precision restricted by solubility
[13] = po, male mouse, precision restricted by solubility
[14] = po, female rat, precision restricted by solubility
[15] = po, male rat, precision restricted by solubility

SMILES: CN(C)c1ccccc1C[S+]([O-])c1nc2ccccc2[nH]1 (stereo not shown) [NC-1300, 2-[(2-dimethylaminobenzyl)sulfinyl]-1H-benzimidazole, reference compound]
- Gastric juice, treated ([1]; 10 mg/kg p.o.): 6.11 mL
- Gastric acid, change ([1]; 10 mg/kg p.o.): -34.0%
- Gastric juice, change ([1]; 10 mg/kg p.o.): -16.3%
- Gastric acid, treated ([1]; 10 mg/kg p.o.): 2.74 mL
- Gastric juice, treated ([1]; 20 mg/kg p.o.): 4.63 mL
- Gastric acid, change ([1]; 20 mg/kg p.o.): -58.2%
- Gastric juice, change ([1]; 20 mg/kg p.o.): -17.5%
- Gastric acid, treated ([1]; 20 mg/kg p.o.): 1.36 mL
- Gastric juice, treated ([1]; 50 mg/kg p.o.): 4.50 mL
- Gastric acid, change ([1]; 50 mg/kg p.o.): -88.1%
- Gastric juice, change ([1]; 50 mg/kg p.o.): -23.7%
- Gastric acid, treated ([1]; 50 mg/kg p.o.): 0.41 mL
- ED50 [1]: 16 mg/kg
- Gastric acid, treated ([2]; 5 mg/kg i.p.): 1.97 mL
- Gastric acid, change ([2]; 5 mg/kg i.p.): -43%
- Gastric juice, change ([2]; 5 mg/kg i.p.): -45%
- Gastric juice, treated ([2]; 5 mg/kg i.p.): 1.27 mL
- Gastric acid, treated ([2]; 10 mg/kg i.p.): 0.78 mL
- Gastric acid, change ([2]; 10 mg/kg i.p.): -77%
- Gastric juice, change ([2]; 10 mg/kg i.p.): -79%
- Gastric juice, treated ([2]; 10 mg/kg i.p.): 0.49 mL
- Gastric acid, treated ([2]; 20 mg/kg i.p.): 0.61 mL
- Gastric acid, change ([2]; 20 mg/kg i.p.): -82%
- Gastric juice, change ([2]; 20 mg/kg i.p.): -78%
- Gastric juice, treated ([2]; 20 mg/kg i.p.): 0.50 mL
- ED50 [2]: 6 mg/kg
- Bleedings, treated ([3]; 5 mg/kg p.o.): 84.4 mm
- Bleedings, change ([3]; 5 mg/kg p.o.): -21.7%
- Bleedings, treated ([3]; 10 mg/kg p.o.): 42.25 mm
- Bleedings, change ([3]; 10 mg/kg p.o.): -60.8%
- Bleedings, treated ([3]; 20 mg/kg p.o.): 11.65 mm
- Bleedings, change ([3]; 20 mg/kg p.o.): -86.0%
- ED50 [3]: 8.6 mg/kg
- ED50 [4, 9]: 7.4 mg/kg
- ED50 [4, 10]: 14.5 mg/kg
- ED50 [4, 11]: 5.7 mg/kg
- ED50 [5, 9]: 8 mg/kg
- ED50 [5, 10]: 18 mg/kg
- ED50 [5, 11]: 6 mg/kg
- ED50 [6]: 8.4 mg/kg
- ED50 [7]: 11.9 mg/kg
- increase in the recovery [8]: 37%
- LD50 (Acute toxicity, mouse; ip, female mouse): 415 mg/kg
- LD50 (Acute toxicity, mouse; ip, male mouse): 410 mg/kg
- LD50 (Acute toxicity, mouse; [12]): > 1000 mg/kg
- LD50 (Acute toxicity, mouse; [13]): > 1000 mg/kg
- LD50 (Acute toxicity, rat; ip, female rat): 245 mg/kg
- LD50 (Acute toxicity, rat; ip, male rat): 270 mg/kg
- LD50 (Acute toxicity, rat; [14]): 1400 mg/kg
- LD50 (Acute toxicity, rat; [15]): 1300 mg/kg

SMILES: Cc1cc(=O)[nH]c(SCc2ccccc2N(C)C)n1 [Example 1, 2-(2-dimethylaminobenzyl)thio-6-methyl-4(3H)-pyrimidinone]
- Gastric juice, treated ([1]; 10 mg/kg p.o.): 6.76 mL
- Gastric acid, change ([1]; 10 mg/kg p.o.): -28.2%
- Gastric juice, change ([1]; 10 mg/kg p.o.): -10.6%
- Gastric acid, treated ([1]; 10 mg/kg p.o.): 2.45 mL
- Gastric juice, treated ([1]; 20 mg/kg p.o.): 6.15 mL
- Gastric acid, change ([1]; 20 mg/kg p.o.): -65.1%
- Gastric juice, change ([1]; 20 mg/kg p.o.): -12.9%
- Gastric acid, treated ([1]; 20 mg/kg p.o.): 1.17 mL
- Gastric juice, treated ([1]; 40 mg/kg p.o.): 4.51 mL
- Gastric acid, change ([1]; 40 mg/kg p.o.): -92.4%
- Gastric juice, change ([1]; 40 mg/kg p.o.): -34.4%
- Gastric acid, treated ([1]; 40 mg/kg p.o.): 0.22 mL
- inhibitor effect on gastric acid secretion, in words ([1]; compared with reference drugs): equiactive to the NC-1300 reference drug
- ED50 [1]: 15 mg/kg
- Gastric acid, treated ([2]; 6.25 mg/kg i.p.): 3.41 mL
- Gastric acid, change ([2]; 6.25 mg/kg i.p.): -42%
- Gastric juice, change ([2]; 6.25 mg/kg i.p.): -44%
- Gastric juice, treated ([2]; 6.25 mg/kg i.p.): 2.14 mL
- Gastric acid, treated ([2]; 12.5 mg/kg i.p.): 1.90 mL
- Gastric acid, change ([2]; 12.5 mg/kg i.p.): -68%
- Gastric juice, change ([2]; 12.5 mg/kg i.p.): -64%
- Gastric juice, treated ([2]; 12.5 mg/kg i.p.): 1.38 mL
- Gastric acid, treated ([2]; 25 mg/kg i.p.): 0.66 mL
- Gastric acid, change ([2]; 25 mg/kg i.p.): -89%
- Gastric juice, change ([2]; 25 mg/kg i.p.): -87%
- Gastric juice, treated ([2]; 25 mg/kg i.p.): 0.49 mL
- ED50 [2]: 6.8 mg/kg
- Bleedings, treated ([3]; 10 mg/kg p.o.): 62.0 mm
- Bleedings, change ([3]; 10 mg/kg p.o.): -38.7%
- Bleedings, treated ([3]; 20 mg/kg p.o.): 42.1 mm
- Bleedings, change ([3]; 20 mg/kg p.o.): -56.9%
- Bleedings, treated ([3]; 40 mg/kg p.o.): 10.9 mm
- Bleedings, change ([3]; 40 mg/kg p.o.): -89.6%
- ED50 [3]: 14.5 mg/kg
- ED50 [4, 9]: 3.3 mg/kg
- ED50 [4, 10]: 9 mg/kg
- ED50 [4, 11]: 3.7 mg/kg
- ulcer inhibition, in words ([4]; compared with reference drugs): significantly stronger inhibited
- ED50 [5, 9]: 16 mg/kg
- ED50 [5, 10]: 18 mg/kg
- ED50 [5, 11]: 15 mg/kg
- ulcer inhibition, in words ([5]; compared with reference drugs): significantly stronger inhibited
- ED50 [6]: 8.2 mg/kg
- ulcer inhibition, in words ([6]; compared with reference drugs): significantly stronger inhibited
- ED50 [7]: 7.3 mg/kg
- ulcer inhibition, in words ([7]; compared with reference drugs): significantly stronger inhibited
- increase in the recovery [8]: 45%
- recovery from developed gastric ulcers, in words ([8]; compared with reference drug): better results were achieved in the recovery from developed gastric ulcers
- LD50 (Acute toxicity, mouse; ip, female mouse): 365 mg/kg
- LD50 (Acute toxicity, mouse; ip, male mouse): 360 mg/kg
- LD50 (Acute toxicity, mouse; [12]): > 1000 mg/kg
- LD50 (Acute toxicity, mouse; [13]): > 1000 mg/kg
- LD50 (Acute toxicity, rat; ip, female rat): 430 mg/kg
- LD50 (Acute toxicity, rat; ip, male rat): 450 mg/kg
- LD50 (Acute toxicity, rat; [14]): 2400 mg/kg
- LD50 (Acute toxicity, rat; [15]): > 3000 mg/kg
